Where a SMILES comes first, the peptide text is derived from it. [ ]: non-standard residue; d: D form.
Assays:
[1] = molecular target: T1, Solute carrier organic anion transporter family member 1B3 (Homo sapiens, UniProt Q9NPD5); experiment: (§1) TP_TRANSPORTER: uptake in Xenopus laevis oocytes; format: functional, cell-based, Oocyte; conditions: oocyte
T1 sequence (Q9NPD5 whole entry): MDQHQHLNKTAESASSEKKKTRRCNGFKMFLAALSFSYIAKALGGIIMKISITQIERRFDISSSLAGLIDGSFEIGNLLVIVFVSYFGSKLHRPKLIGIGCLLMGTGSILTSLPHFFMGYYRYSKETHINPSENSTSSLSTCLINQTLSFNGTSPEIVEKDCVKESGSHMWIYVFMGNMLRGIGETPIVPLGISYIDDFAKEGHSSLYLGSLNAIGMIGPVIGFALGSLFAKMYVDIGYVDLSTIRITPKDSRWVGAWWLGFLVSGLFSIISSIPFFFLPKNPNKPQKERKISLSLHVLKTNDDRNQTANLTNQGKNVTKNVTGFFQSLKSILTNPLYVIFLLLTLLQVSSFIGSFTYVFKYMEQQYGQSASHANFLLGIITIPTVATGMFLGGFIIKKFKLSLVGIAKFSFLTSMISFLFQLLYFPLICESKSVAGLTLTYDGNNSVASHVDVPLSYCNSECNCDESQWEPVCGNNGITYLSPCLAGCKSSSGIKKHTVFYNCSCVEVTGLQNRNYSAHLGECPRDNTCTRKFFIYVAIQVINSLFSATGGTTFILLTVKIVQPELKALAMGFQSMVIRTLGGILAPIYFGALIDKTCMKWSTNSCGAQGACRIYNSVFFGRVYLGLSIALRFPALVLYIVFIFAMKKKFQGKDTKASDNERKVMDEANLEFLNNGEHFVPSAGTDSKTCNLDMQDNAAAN

[2] = molecular target: T2, Solute carrier organic anion transporter family member 1B1 (Homo sapiens, UniProt Q9Y6L6); experiment: as §1; format: functional, cell-based; conditions: oocyte
T2 sequence (Q9Y6L6 whole entry): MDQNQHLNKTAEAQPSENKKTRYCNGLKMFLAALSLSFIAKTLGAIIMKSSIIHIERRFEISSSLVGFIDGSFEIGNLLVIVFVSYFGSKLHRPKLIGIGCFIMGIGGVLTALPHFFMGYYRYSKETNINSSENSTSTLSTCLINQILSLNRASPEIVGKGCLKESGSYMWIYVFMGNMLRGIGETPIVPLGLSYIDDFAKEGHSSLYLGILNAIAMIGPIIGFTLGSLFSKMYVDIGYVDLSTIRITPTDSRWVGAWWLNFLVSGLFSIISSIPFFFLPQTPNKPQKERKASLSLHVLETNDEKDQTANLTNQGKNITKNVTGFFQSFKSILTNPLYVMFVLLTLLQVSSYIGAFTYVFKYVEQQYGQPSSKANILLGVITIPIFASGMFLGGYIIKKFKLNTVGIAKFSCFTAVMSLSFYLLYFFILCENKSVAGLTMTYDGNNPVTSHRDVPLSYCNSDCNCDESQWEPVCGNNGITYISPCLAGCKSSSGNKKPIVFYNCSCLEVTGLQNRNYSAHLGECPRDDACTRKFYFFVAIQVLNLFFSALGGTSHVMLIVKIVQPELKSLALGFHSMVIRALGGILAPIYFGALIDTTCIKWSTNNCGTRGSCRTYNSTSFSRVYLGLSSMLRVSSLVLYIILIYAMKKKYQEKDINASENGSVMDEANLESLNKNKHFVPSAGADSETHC

[3] = molecular target: T3, Solute carrier organic anion transporter family member 1A2 (Homo sapiens, UniProt P46721); experiment: as §1; format: functional, cell-based; conditions: oocyte
T3 sequence (P46721 whole entry): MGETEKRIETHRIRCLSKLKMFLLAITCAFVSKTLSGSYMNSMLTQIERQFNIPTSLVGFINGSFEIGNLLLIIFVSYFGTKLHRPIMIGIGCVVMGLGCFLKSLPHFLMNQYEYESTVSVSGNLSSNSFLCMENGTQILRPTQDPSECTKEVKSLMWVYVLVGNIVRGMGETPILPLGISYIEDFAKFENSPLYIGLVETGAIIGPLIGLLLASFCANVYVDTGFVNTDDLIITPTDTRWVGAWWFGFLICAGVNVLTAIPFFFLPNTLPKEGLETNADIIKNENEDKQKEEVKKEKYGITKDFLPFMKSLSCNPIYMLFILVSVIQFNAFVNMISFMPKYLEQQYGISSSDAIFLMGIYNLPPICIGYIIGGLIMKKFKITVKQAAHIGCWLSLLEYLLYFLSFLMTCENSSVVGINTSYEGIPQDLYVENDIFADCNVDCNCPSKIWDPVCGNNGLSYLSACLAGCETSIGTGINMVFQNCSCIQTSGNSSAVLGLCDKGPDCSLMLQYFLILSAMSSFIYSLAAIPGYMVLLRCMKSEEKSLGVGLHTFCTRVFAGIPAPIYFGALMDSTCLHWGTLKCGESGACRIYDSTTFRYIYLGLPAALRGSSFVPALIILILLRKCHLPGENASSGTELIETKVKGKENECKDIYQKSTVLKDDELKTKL

[4] = molecular target: T4, Solute carrier organic anion transporter family member 2B1 (Homo sapiens, UniProt O94956); experiment: as §1; format: functional, cell-based; conditions: oocyte
T4 sequence (O94956 whole entry): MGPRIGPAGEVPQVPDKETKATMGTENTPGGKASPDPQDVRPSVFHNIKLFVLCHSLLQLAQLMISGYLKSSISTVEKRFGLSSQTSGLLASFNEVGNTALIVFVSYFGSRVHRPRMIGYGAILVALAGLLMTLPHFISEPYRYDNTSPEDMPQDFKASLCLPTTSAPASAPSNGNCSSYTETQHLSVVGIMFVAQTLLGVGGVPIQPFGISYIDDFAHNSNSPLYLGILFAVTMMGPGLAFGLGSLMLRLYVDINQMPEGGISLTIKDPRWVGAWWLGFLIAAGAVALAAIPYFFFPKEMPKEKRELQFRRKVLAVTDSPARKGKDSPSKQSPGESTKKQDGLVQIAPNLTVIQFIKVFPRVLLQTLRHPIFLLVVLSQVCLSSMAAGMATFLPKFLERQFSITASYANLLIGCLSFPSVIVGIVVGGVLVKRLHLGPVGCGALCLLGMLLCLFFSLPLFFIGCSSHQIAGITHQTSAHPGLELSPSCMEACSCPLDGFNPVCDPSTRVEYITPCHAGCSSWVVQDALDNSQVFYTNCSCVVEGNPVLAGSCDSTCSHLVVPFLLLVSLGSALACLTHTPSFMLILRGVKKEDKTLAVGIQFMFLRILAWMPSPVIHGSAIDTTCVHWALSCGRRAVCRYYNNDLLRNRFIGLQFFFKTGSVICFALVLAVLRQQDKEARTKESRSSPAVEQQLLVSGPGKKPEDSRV

[5] = molecular target: T5, Solute carrier organic anion transporter family member 1B3 (OATP1B3, SLCO1B3) (Homo sapiens, UniProt Q9NPD5); experiment: as §1; format: functional, cell-based, Oocyte; conditions: Xenopus laevis oocytes expressing the transporter
T5 sequence (Q9NPD5 whole entry): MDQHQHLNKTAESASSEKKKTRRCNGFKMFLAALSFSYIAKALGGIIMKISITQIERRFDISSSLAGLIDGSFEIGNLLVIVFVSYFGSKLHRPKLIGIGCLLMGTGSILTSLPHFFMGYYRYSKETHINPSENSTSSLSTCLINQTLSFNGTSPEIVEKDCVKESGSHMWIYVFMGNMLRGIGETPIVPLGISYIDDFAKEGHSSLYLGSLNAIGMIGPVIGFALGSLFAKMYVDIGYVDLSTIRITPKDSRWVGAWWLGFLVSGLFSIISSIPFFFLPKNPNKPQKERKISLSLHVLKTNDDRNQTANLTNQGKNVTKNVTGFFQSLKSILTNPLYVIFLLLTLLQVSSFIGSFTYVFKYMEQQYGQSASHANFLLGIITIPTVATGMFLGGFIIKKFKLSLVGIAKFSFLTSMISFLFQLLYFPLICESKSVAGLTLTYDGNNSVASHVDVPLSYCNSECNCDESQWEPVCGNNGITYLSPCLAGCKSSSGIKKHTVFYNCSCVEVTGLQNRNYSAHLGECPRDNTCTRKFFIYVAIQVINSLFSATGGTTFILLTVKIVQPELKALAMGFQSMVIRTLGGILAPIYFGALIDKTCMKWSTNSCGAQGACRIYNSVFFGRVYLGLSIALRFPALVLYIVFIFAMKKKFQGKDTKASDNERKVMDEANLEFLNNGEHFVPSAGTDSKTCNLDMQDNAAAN

[6] = substrate: O=C1OC(c2ccc(O)c(S(=O)(=O)O)c2)(c2ccc(O)c(S(=O)(=O)O)c2)c2c(Br)c(Br)c(Br)c(Br)c21; experiment: as §1; format: functional, cell-based, Oocyte

| Molecule | Activity [1] | Activity [3] | further results |
| --- | --- | --- | --- |
| CC1(C)SSC(C)(C)[C@@H](NC(=O)[C@@H](N)Cc2ccc(O)cc2)C(=O)NCC(=O)N[C@@H](Cc2ccccc2)C(=O)N[C@H]1C(=O)O | substrate [+] | – | Activity [2]: substrate [+] |
| CC(C)C[C@@H]1NC(=O)[C@@H](C(C)C)NC(=O)[C@@H]2CCCN2C(=O)[C@@H](CC(=O)O)NC(=O)[C@@H](Cc2c[nH]c3ccccc23)NC1=O [BQ-123] (cyclo(L[dW][dD]P[dV])) | substrate [+] | substrate [+] | Activity [2]: substrate [+] |
| CC(C)[C@H](NC(=O)[C@H](CCC(=O)O)NC(=O)[C@H](Cc1ccccc1)NC(=O)[C@@H](C)NC(=O)[C@@H](N)Cc1ccc(O)cc1)C(=O)N[C@H](C(=O)NCC(N)=O)C(C)C [DELTORPHIN II] | substrate [+] | – | – |
| CCCCC[C@H](O)/C=C/[C@H]1[C@H](O)CC(=O)[C@@H]1C/C=C\CCCC(=O)O [DINOPROSTONE] | – | substrate [+] | – |
| C[C@]12CC[C@@H]3c4ccc(O)cc4CC[C@H]3[C@@H]1CC[C@@H]2O[C@@H]1O[C@H](C(=O)O)[C@@H](O)[C@H](O)[C@H]1O [ESTRADIOL 17B GLUCURONIDE] | substrate [+] | substrate [+] | – |
| C[C@]12CC[C@@H]3c4ccc(OS(=O)(=O)O)cc4CC[C@H]3[C@@H]1CCC2=O [ESTRONE SULFURIC ACID] | substrate [+] | – | Activity [4]: substrate [+] |
| C[C@H](CCC(=O)NCC(=O)O)[C@H]1CC[C@H]2[C@@H]3[C@H](O)C[C@@H]4C[C@H](O)CC[C@]4(C)[C@H]3C[C@H](O)[C@]12C [GLYCOCHOLIC ACID] | substrate [+] | substrate [+] | Activity [2]: substrate [+] |
| CCCCC/C=C\C\C=C/C=C/C=C/[C@@H](SC[C@@H](NC(=O)CC[C@H](N)C(=O)O)C(=O)NCC(=O)O)[C@@H](O)CCCC(=O)O [LEUKOTRIEN C4] | substrate [+] | – | – |
| N[C@@H](Cc1cc(I)c(Oc2cc(I)c(O)c(I)c2)c(I)c1)C(=O)O [LEVOTHYROXINE] | substrate [+] | – | – |
| N[C@@H](Cc1cc(I)c(Oc2ccc(O)c(I)c2)c(I)c1)C(=O)O [LIOTHYRONINE] | substrate [+] | – | – |
| C[C@@H]1O[C@@H](O[C@H]2C[C@@H](O)[C@]3(CO)[C@H]4[C@H](O)C[C@]5(C)[C@@H](C6=CC(=O)OC6)CC[C@]5(O)[C@@H]4CC[C@]3(O)C2)[C@H](O)[C@H](O)[C@H]1O [OUABAIN] | substrate [+] | substrate [+] | – |
| C[C@]12CC[C@H](OS(=O)(=O)O)CC1=CC[C@@H]1[C@@H]2CC[C@]2(C)C(=O)CC[C@@H]12 [PRASTERONE SULFURIC ACID] | substrate [+] | – | Activity [4]: substrate [+] |
| O=C1OC(c2ccc(O)c(S(=O)(=O)O)c2)(c2ccc(O)c(S(=O)(=O)O)c2)c2c(Br)c(Br)c(Br)c(Br)c21 [SULFOBROMOPHTHALEIN SODIUM] | – | – | Km [5]: 0.4 µM |
| Solute carrier organic anion transporter family member 2B1 (Homo sapiens) (protein) MGPRIGPAGEVPQVPDKETKATMGTENTPGGKASPDPQDVRPSVFHNIKLFVLCHSLLQLAQLMISGYLKSSISTVEKRFGLSSQTSGLLASFNEVGNTALIVFVSYFGSRVHRPRMIGYGAILVALAGLLMTLPHFISEPYRYDNTSPEDMPQDFKASLCLPTTSAPASAPSNGNCSSYTETQHLSVVGIMFVAQTLLGVGGVPIQPFGISYIDDFAHNSNSPLYLGILFAVTMMGPGLAFGLGSLMLRLYVDINQMPEGGISLTIKDPRWVGAWWLGFLIAAGAVALAAIPYFFFPKEMPKEKRELQFRRKVLAVTDSPARKGKDSPSKQSPGESTKKQDGLVQIAPNLTVIQFIKVFPRVLLQTLRHPIFLLVVLSQVCLSSMAAGMATFLPKFLERQFSITASYANLLIGCLSFPSVIVGIVVGGVLVKRLHLGPVGCGALCLLGMLLCLFFSLPLFFIGCSSHQIAGITHQTSAHPGLELSPSCMEACSCPLDGFNPVCDPSTRVEYITPCHAGCSSWVVQDALDNSQVFYTNCSCVVEGNPVLAGSCDSTCSHLVVPFLLLVSLGSALACLTHTPSFMLILRGVKKEDKTLAVGIQFMFLRILAWMPSPVIHGSAIDTTCVHWALSCGRRAVCRYYNNDLLRNRFIGLQFFFKTGSVICFALVLAVLRQQDKEARTKESRSSPAVEQQLLVSGPGKKPEDSRV | – | – | Km [6]: 0.7 µM |
| Solute carrier organic anion transporter family member 1B1 (Homo sapiens) (protein) MDQNQHLNKTAEAQPSENKKTRYCNGLKMFLAALSLSFIAKTLGAIIMKSSIIHIERRFEISSSLVGFIDGSFEIGNLLVIVFVSYFGSKLHRPKLIGIGCFIMGIGGVLTALPHFFMGYYRYSKETNINSSENSTSTLSTCLINQILSLNRASPEIVGKGCLKESGSYMWIYVFMGNMLRGIGETPIVPLGLSYIDDFAKEGHSSLYLGILNAIAMIGPIIGFTLGSLFSKMYVDIGYVDLSTIRITPTDSRWVGAWWLNFLVSGLFSIISSIPFFFLPQTPNKPQKERKASLSLHVLETNDEKDQTANLTNQGKNITKNVTGFFQSFKSILTNPLYVMFVLLTLLQVSSYIGAFTYVFKYVEQQYGQPSSKANILLGVITIPIFASGMFLGGYIIKKFKLNTVGIAKFSCFTAVMSLSFYLLYFFILCENKSVAGLTMTYDGNNPVTSHRDVPLSYCNSDCNCDESQWEPVCGNNGITYISPCLAGCKSSSGNKKPIVFYNCSCLEVTGLQNRNYSAHLGECPRDDACTRKFYFFVAIQVLNLFFSALGGTSHVMLIVKIVQPELKSLALGFHSMVIRALGGILAPIYFGALIDTTCIKWSTNNCGTRGSCRTYNSTSFSRVYLGLSSMLRVSSLVLYIILIYAMKKKYQEKDINASENGSVMDEANLESLNKNKHFVPSAGADSETHC | – | – | Km [6]: 0.3 µM |

From ChEMBL document CHEMBL2074173, “Organic anion-transporting polypeptide B (OATP-B) and its functional comparison with three other OATPs of human liver” (Gastroenterology, 2001)
